PubChem BioAssay AID488810 (Sanford-Burnham Center for Chemical Genomics, 2010)
“And” between values parts separate entries of the source, which are not always exact repeats. Identical values can stand only once. The source made the active and inactive calls.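 The calls were made as follows: active = compounds with IC50 below 20 µM; inactive = the rest.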

The compounds below were run against Type-1 angiotensin II receptor (Homo sapiens) (UniProt P30556) (assay: AT1 receptor antagonists, beta-arrestin recruitment, SAR follow-up, selectivity assay for APJ antagonist project, cell-based, CHO-K1 PathHunter, luminescence (AID 488810;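 also: agonist challenge with angiotensin II at 50 nM final near its EC80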)). Details: CHO-K1 AGTR1 PathHunter beta-arrestin, antagonist mode.
Type-1 angiotensin II receptor (Homo sapiens), sequence (P30556 whole entry, looked up): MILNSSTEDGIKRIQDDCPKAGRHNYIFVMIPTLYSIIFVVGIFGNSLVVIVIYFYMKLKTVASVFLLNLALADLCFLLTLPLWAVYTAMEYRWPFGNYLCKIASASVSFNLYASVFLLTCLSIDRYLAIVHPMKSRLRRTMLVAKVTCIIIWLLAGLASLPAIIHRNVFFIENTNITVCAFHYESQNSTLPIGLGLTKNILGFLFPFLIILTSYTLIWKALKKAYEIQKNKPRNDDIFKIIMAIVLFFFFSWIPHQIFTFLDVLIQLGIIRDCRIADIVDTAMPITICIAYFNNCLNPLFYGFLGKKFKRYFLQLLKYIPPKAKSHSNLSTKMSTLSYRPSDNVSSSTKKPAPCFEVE

SMILES | IC50
COc1ccc(C(=O)CNc2cccc(F)c2)cc1 | 18.8 µM
COc1cccc(C(=O)Oc2coc(CSc3nccc(C)n3)cc2=O)c1 | > 79 µM (inactive)
COc1ccc(C2CC3(CC(C)(C)NC(=S)N3)Oc3cc(OC(C)=O)cc(C)c32)cc1 (stereo not given) | > 79 µM (inactive)
O=C(O)CN1C(=O)C(=O)c2ccccc21 | > 79 µM (inactive)
COc1ccc(C(=O)Oc2coc(CSc3ncccn3)cc2=O)cc1 | > 79 µM (inactive)
CCC1CCCCN1CC(=O)c1ccc(OC(F)F)cc1 (stereo not given) | inactive
Cc1ccnc(SCc2cc(=O)c(OC(=O)c3ccccc3C)co2)n1 | > 79 µM (inactive)
O=C(Oc1coc(CSc2ncccn2)cc1=O)c1ccccc1 | > 79 µM (inactive)
Cc1c(C(=O)Oc2coc(CSc3ncccn3)cc2=O)cccc1[N+](=O)[O-] | > 79 µM (inactive)
Cc1cc(C)nc(SCc2cc(=O)c(OC(=O)c3cccc([N+](=O)[O-])c3C)co2)n1 | > 79 µM (inactive)
Cc1cc(C)nc(SCc2cc(=O)c(OC(=O)c3cc(Cl)ccc3[N+](=O)[O-])co2)n1 | inactive
Cc1cc(C)nc(SCc2cccc(O)c2)n1 | > 79 µM (inactive)
O=C(Oc1coc(CSc2ncccn2)cc1=O)c1ccc(S(=O)(=O)N2CCCCC2)cc1 | > 79 µM (inactive)
CCOC(=O)C1=NNC(C(=O)c2ccc(Cl)cc2)C1c1ccccc1 (stereo not given) | inactive
O=c1c2cc(Br)ccc2[nH]c(=S)n1Cc1ccccn1 | 15.6 µM
O=C(COC(=O)c1cccnc1)c1ccc(Cl)cc1 | > 79 µM (inactive)
O=C(Oc1coc(CSc2ccccc2)cc1=O)c1ccc(Cl)c([N+](=O)[O-])c1 | > 79 µM (inactive)
CC(C)Cc1nc2oc3c(Cl)ncnc3c2c2c1CCC2 | 15 µM
Cc1ccccc1C1CC2(CC(C)(C)NC(=S)N2)Oc2cc(O)c(Cl)cc21 (stereo not given) | > 79 µM (inactive)
Cc1cccc(C2CC3(CC(C)(C)NC(=S)N3)Oc3cc(O)c(Cl)cc32)c1 (stereo not given) | inactive
S=C1NCCc2ccccc2C1c1ccccc1Cl (stereo not given) | 16.5 µM
CC(C)(C)c1ccc(-n2nc(C#N)c(Cl)cc2=O)cc1 | 8.21 µM
Cc1ccnc(SCc2cc(=O)c(OC(=O)c3ccco3)co2)n1 | > 79 µM (inactive)
O=C(CNC(=O)c1ccco1)NCC(=O)OCC(=O)c1ccc(Cl)c([N+](=O)[O-])c1 | 4.78 µM
O=C(Oc1coc(CSc2ncccn2)cc1=O)c1ccc(Cl)cc1 | > 79 µM (inactive)
C=CCOc1ccc(CSc2nc(C)cc(C)n2)cc1Cl | > 79 µM (inactive)
O=C(Oc1coc(CSc2ncccn2)cc1=O)c1cccc([N+](=O)[O-])c1 | > 79 µM (inactive)

SMILES | IC50
CC(=O)Nc1ccc(NC(=O)CCC(=O)OCC(=O)c2ccc(C)c([N+](=O)[O-])c2)cc1 | inactive
Cc1ccnc(SCc2cc(=O)c(OC(=O)c3ccccc3)co2)n1 | > 79 µM (inactive)
CCOc1ccc(N=C2C(=O)Nc3ccc(C)c(Br)c32)cc1 | 7.56 µM
O=C(Nc1nc2c(F)cc(F)cc2s1)c1ccccn1 | 4.52 µM
Cc1ccnc(SCc2cc(=O)c(OC(=O)c3ccc(Cl)cc3)co2)n1 | > 79 µM (inactive)
Cc1ccc(C(=O)CNc2cc(C)ccc2C)cc1 | 3.44 µM
Oc1cccc(CSc2ncccn2)c1 | > 79 µM (inactive)
Cc1ccnc(SCc2cc(=O)c(OC(=O)c3ccc(C#N)cc3)co2)n1 | > 79 µM (inactive)
Cc1ccccc1NCC(O)c1ccc(Cl)cc1 (stereo not given) | > 79 µM (inactive)
COc1cccc(/C=C/c2ccc3cccc(O)c3n2)c1OC | 14.1 µM
Cc1ccnc(SCc2cc(=O)c(OC(=O)c3ccc(F)cc3)co2)n1 | > 79 µM (inactive)
Cc1cccc(N=C2C(=O)Nc3c(Cl)cccc32)c1 | 3.32 µM
O=C(COC(=O)c1cccnc1)c1ccc(Cl)c(Cl)c1 | inactive
Cc1cc(C)nc(NNS(=O)(=O)c2ccc(Cl)cc2)n1 | 12.4 µM
Cc1ccnc(SCc2cc(=O)c(OC(=O)c3cccs3)co2)n1 | > 79 µM (inactive)
Cc1ccnc(SCc2cccc(O)c2)n1 | > 79 µM (inactive)
Cc1ccc(N=C2C(=O)Nc3ccc(Br)cc32)cc1 | 3.92 µM
CC1(C)CC2(CC(c3ccccc3Cl)c3ccc(O)cc3O2)NC(=O)N1 (stereo not given) | > 79 µM (inactive)
Cc1c(O)ccc2c1OC1(CC2c2ccccc2Cl)CC(C)(C)NC(=O)N1 (stereo not given) | > 79 µM (inactive)
Cc1cc(C)nc(SCc2cc(=O)c(OC(=O)c3ccc(Cl)c([N+](=O)[O-])c3)co2)n1 | > 79 µM (inactive)
Oc1cccc2ccc(/C=C/c3ccccc3Cl)nc12 | 17 µM
N#Cc1ccc(C(=O)Oc2coc(CSc3ncccn3)cc2=O)cc1 | > 79 µM (inactive)
Cc1ccnc(S(=O)(=O)Cc2cc(=O)c(OC(=O)c3ccc(Cl)c([N+](=O)[O-])c3)co2)n1 | > 79 µM (inactive)
Cc1ccnc(SCc2cc(=O)c(OC(=O)c3ccc(S(=O)(=O)N4CCCC4)cc3)co2)n1 | > 79 µM (inactive)
Cc1ccnc(SCc2cc(=O)c(OC(=O)c3cccc([N+](=O)[O-])c3)co2)n1 | > 79 µM (inactive)
Cc1cc(C)nc(NNS(=O)(=O)c2ccc(F)c(Cl)c2)n1 | 3.78 µM
Cc1ccnc(SCc2cc(=O)c(O)co2)n1 | > 79 µM (inactive)

SMILES | IC50
Cc1ccc(NCC(=O)c2ccccc2)cc1 | 2.56 µM
COc1ccccc1NCC(=O)c1ccc(Cl)cc1 | 1.93 µM and 2.19 µM
Cc1ccnc(SCc2cc(=O)c(OC(=O)c3cc([N+](=O)[O-])ccc3Cl)co2)n1 | inactive
Cc1ccc(C(=O)Oc2coc(CSc3ncccn3)cc2=O)cc1[N+](=O)[O-] | > 79 µM (inactive)
Cc1cc(C)nc(SCc2cc(=O)c(OC(=O)c3ccc(C)c([N+](=O)[O-])c3)co2)n1 | > 79 µM (inactive)
O=C(Oc1coc(CSc2ncccn2)cc1=O)c1ccc(S(=O)(=O)N2CCCC2)cc1 | > 79 µM (inactive)
Cc1cc(C)nc(SCc2cc(=O)c(OC(=O)c3ccc(S(=O)(=O)N(C)C)cc3)co2)n1 | > 79 µM (inactive)
Cc1ccc(C(=O)Oc2coc(CSc3ncccn3)cc2=O)cc1C | > 79 µM (inactive)
Cc1cccc(C(=O)Oc2coc(CSc3nccc(C)n3)cc2=O)c1 | > 79 µM (inactive)
CC1(C)CC2(CC(c3ccc(Cl)cc3)c3ccc(O)cc3O2)NC(=S)N1 (stereo not given) | inactive
CCN(CC)CC(=O)c1ccc(-c2ccccc2)cc1 | 10 µM
Cc1ccc(C)c(NCC(O)c2ccc(Cl)cc2)c1 (stereo not given) | > 79 µM (inactive)
O=c1cc(CSc2ccc(Cl)cc2)nc(-c2ccccn2)[nH]1 | 9.04 µM
Cc1ccc(NCC(O)c2ccccc2)cc1 (stereo not given) | > 79 µM (inactive)
O=C1Nc2ccccc2C1=Nc1ccc(Br)cc1 | 6.68 µM
COc1ccc(N=C2C(=O)Nc3ccc(C)c(Br)c32)cc1 | > 79 µM (inactive)
CCN(CC)S(=O)(=O)c1ccc(C(=O)Oc2coc(CSc3ncccn3)cc2=O)cc1 | > 79 µM (inactive)
CC1(C)CC2(CC(c3ccc(F)cc3)c3ccc(O)cc3O2)NC(=S)N1 (stereo not given) | > 79 µM (inactive)
Cc1ccnc(SCc2cc(=O)c(OC(=O)c3ccc(C)c([N+](=O)[O-])c3)co2)n1 | > 79 µM (inactive)
CC(=O)c1ccc(N=C2C(=O)Nc3ccccc32)cc1 | 1.29 µM
Cc1ccc(C(=O)Oc2coc(CSc3nccc(C)n3)cc2=O)cc1 | > 79 µM (inactive)
Cc1cc(C)nc(SCc2ccc(OC(=O)c3ccccc3)c(Cl)c2)n1 | > 79 µM (inactive)
Cc1ccc(N=C2C(=O)Nc3c(C)cccc32)cc1 | inactive
COC(=O)C1NN=C(C(=O)c2ccc(Cl)cc2)C1c1ccc(OC)cc1 (stereo not given) | 16.1 µM
O=C1Nc2ccccc2C1=Nc1ccc(F)cc1 | 9.49 µM
Cc1ccc(C(=O)CNc2ccccc2)cc1 | 3.37 µM
CC1(C)CC2(CC(c3ccccc3Cl)c3ccc(OC(=O)c4ccccc4)cc3O2)NC(=S)N1 (stereo not given) | > 79 µM (inactive)

SMILES | IC50
CC(C)OC(=O)CN1C(=O)C(=O)c2ccccc21 | 4.99 µM and > 79 µM (inactive)
O=C(Oc1coc(CSc2ncccn2)cc1=O)c1ccc(-c2ccccc2)cc1 | > 79 µM (inactive)
COc1ccc(NC2C(=O)Nc3ccccc32)cc1 (stereo not given) | > 79 µM (inactive)
O=c1cc(CSc2ccccc2)occ1O | > 79 µM (inactive)
Cc1cc(C)nc(NNS(=O)(=O)c2c(F)cc(F)cc2Br)n1 | 5.01 µM
O=C(Oc1coc(CSc2ncccn2)cc1=O)c1cc([N+](=O)[O-])ccc1Cl | inactive
C=CCOc1cccc(CSc2nccc(C)n2)c1 | > 79 µM (inactive)
O=C(Oc1coc(CSc2ncccn2)cc1=O)c1ccc(S(=O)(=O)N2CCOCC2)cc1 | > 79 µM (inactive)
O=C(Oc1coc(CSc2ncccn2)cc1=O)c1ccc(Cl)c([N+](=O)[O-])c1 | > 79 µM (inactive)
Cc1ccnc(SCc2cc(=O)c(OC(=O)c3cc(Cl)ccc3[N+](=O)[O-])co2)n1 | inactive
CC1(C)CC2(CC(c3ccccc3F)c3cc(Cl)c(O)cc3O2)NC(=S)N1 (stereo not given) | > 79 µM (inactive)
CC(C)(C)c1ccc(C(=O)Oc2coc(CSc3ncccn3)cc2=O)cc1 | > 79 µM (inactive)
CNC(=O)c1nnsc1S(=O)(=O)c1ccc(Cl)cc1 | 9.98 µM
O=C(CNc1cccc(Cl)c1)c1ccc(Br)cc1 | 3.03 µM
Cc1ccc(C)c(NCC(=O)c2ccc(Cl)cc2)c1 | 1.27 µM
O=S(=O)(NN=Cc1ccc(-c2ccccc2Cl)o1)c1ccccc1 | inactive
CC1(C)CC2(CC(c3ccccc3Cl)c3ccc(O)cc3O2)NC(=S)N1 (stereo not given) | inactive
O=C(CNc1ccccc1C(=O)O)c1ccccc1 | 2.1 µM
Cc1ccnc(SCc2cc(=O)c(OC(=O)c3ccc(OC(F)(F)F)cc3)co2)n1 | > 79 µM (inactive)
O=C(CNS(=O)(=O)c1ccccc1)OCC(=O)c1cccc([N+](=O)[O-])c1 | inactive
CC(C)N1CCc2c(sc(NC(=O)c3cc(-c4cccs4)nc4ccccc34)c2C(N)=O)C1 | inactive
CSC1=NC2(CC(c3ccccc3)c3cc(Cl)c(O)cc3O2)CC(C)(C)N1 (stereo not given) | > 79 µM (inactive)
COc1ccc(C2CC3(CC(C)(C)NC(=S)N3)Oc3cc(O)cc(C)c32)cc1 (stereo not given) | > 79 µM (inactive)
O=C(Oc1coc(CSc2ncccn2)cc1=O)c1ccc([N+](=O)[O-])cc1 | > 79 µM (inactive)
